Here are results for two molecules from patent US20250186532A1, “SHINE MUSCAT JELLY HAVING HIGH SENSORY APPEAL AND EXCELLENT ANTIOXIDANT AND ANTITHROMBOTIC ACTIVITIES, AND METHOD OF PREPARING SAME” (Andong National University Industry-Academic Cooperation …, priority 2023, published 2025).

Assay [1] in a line: Nitrite scavenging ability (Griess reagent). The conditions noted are these: 0.2 mg/ml; nitrite solution 1 mM, pH 1.2, 37° C., 1 hour. On the procedure: To measure the nitrite scavenging ability, a sample solution was added to the nitrite solution (1 mM), and 0.1 N HCl was further added thereto to adjust the pH of the mixture to 1.2. Thereafter, the mixture was reacted at a temperature of 37° C. for 1 hour, and then Griess reagent (Sigma Co., USA) was added, and the resulting solution was mixed. After leaving the resulting solution at room temperature for 15 minutes, the amount of remaining nitrite was measured by measuring absorbance at a wavelength of 520 nm. The nitrite scavenging ability (%) was calculated using the following equation.
(In general: Nitrite, measured by Griess reagent, commonly stands in for NO production.)

In the next assay the test system is blood coagulation factor. Kind of assay: Activated Partial Thromboplastin Time (aPTT). Format: biochemical. Here is the method: (§1) An antithrombotic activity was measured for the three types of jellies prepared in Example 3, and the results are shown in Table 5. At this time, the blood coagulation inhibitory activity evaluation method was in accordance with the previously reported method (Sohn et al., 2004. Kor. J. Pharmacogn 35. 52-61; Kwon et al., 2004. J. Life Science, 14. 509-513; Ryu et al. 2010. J. Life Science, 20. 922-928). Experiments were conducted to measure thrombin time, prothrombin time, and activated Partial Thromboplastin Time (aPTT). For plasma, commercially available control plasma (MD Pacific Technology Co., Ltd, Huayuan Industrial Area, China) was used. The thrombin time, prothrombin time, and aPTT measurements were performed as follows.
Activated Partial Thromboplastin Time (aPTT)
At a temperature of 37° C., 100 μl of plasma and 10 μl of sample extracts of various concentrations were added to the tube of Amelung coagulometer KC-1A (Japan) and heated for 3 minutes. Thereafter, 50 μl of aPTT reagent (Sigma, ALEXIN™) was added thereto. […] Afterward, the time until the plasma coagulated was measured. […] The results of aPTT were expressed as an average value of three repeated experiments. A blood coagulation factor inhibitory activity was expressed as the aPTT upon sample addition divided by the aPTT upon the solvent control addition.

Another assay deals with T1, thrombin (Homo sapiens, UniProt P00734).
T1 construct: 50 μl of 0.5 U thrombin (Sigma Co., USA); purchased Sigma Co., USA
Nature of the assay: Thrombin time (blood coagulation inhibitory activity). Format: biochemical. On the procedure: as §1
At a temperature of 37° C., 50 μl of 0.5 U thrombin (Sigma Co., USA), 50 μl of 20 mM CaCl2), and 10 μl of sample extracts of various concentrations were mixed in a tube of Amelung coagulometer KC-1A (Japan), and reacted for 2 minutes. Thereafter, 100 μl of plasma was added thereto. Afterward, the time until the plasma coagulated was measured. Aspirin (Sigma Co., USA) was used as a control. […] The thrombin inhibition effect was expressed as an average value of experiments repeated more than three times. A thrombin inhibitory activity was expressed as the coagulation time upon sample addition divided by the coagulation time upon the solvent control addition.

The subject of another assay is prothrombin. Nature of the assay: Prothrombin time (blood coagulation inhibitory activity). Format: biochemical. Here is the method: as §1
At a temperature of 37° C., 70 μl of standard plasma (MD Pacific Co., China) and 10 μl of sample solutions of various concentrations were added into the tube of Amelung coagulometer KC-1A (Japan) and heated for 3 minutes. Thereafter, 130 μl of PT reagent was added thereto. Afterward, the time until the plasma coagulated was expressed as an average value of the experiments repeated three times. Aspirin (Sigma Co., USA) was used as a control. […] A prothrombin inhibitory activity was expressed as the coagulation time upon sample addition divided by the coagulation time upon the solvent control addition.

Where [2] appears, read: compared to the untreated group, aspirin at 1.5 mg/ml.

In assay [1], `O=C1O[C@H]([C@@H](O)CO)C(O)=C1O` [Vitamin C] had a Nitrite scavenging ability of 62.5 ± 0.1%.

Regarding `CC(=O)Oc1ccccc1C(=O)O` [Aspirin], the “Blood coagulation inhibitory activity, aPTT” value with blood coagulation factor (aPTT upon sample addition / upon DMSO addition, plasma, 37° C., aspirin 1.5 mg/ml, concentration not given for jellies) came out at 1.33 ± 0.02. Moreover, the “extension of aPTT” value in the assay on blood coagulation factor (setting [2]) is given as 1.33 times. Also, the “Blood coagulation inhibitory activity, Thrombin time” value at thrombin (coagulation time upon sample addition / upon DMSO addition, control plasma, 37° C., aspirin 1.5 mg/ml, concentration not given for jellies) was 1.26 ± 0.00. Besides, the “extension of thrombin time” value at thrombin (setting [2]) is recorded as 1.26 times. In the assay with prothrombin (coagulation time upon sample addition / upon DMSO addition, standard plasma, 37° C., aspirin 1.5 mg/ml, concentration not given for jellies), the “Blood coagulation inhibitory activity, Prothrombin time” value was determined as 1.30 ± 0.02. Also, the “extension of prothrombin time” value with prothrombin (setting [2]) was found to be 1.30 times.
